Measured values as given in patent US20250215030A1, “STAT MODULATORS AND USES THEREOF” (Recludix Pharma, Inc., priority 2022, published 2025).

Key:
[1] = target: T1, Recombinant STAT3 protein (STAT3(G127-I722)) (Homo sapiens, UniProt P40763); assay: STAT3 Fluorescence Polarization (FP) Assay; type: binding; conditions: STAT3(G127-I722) 25 nM, probe 5-FAM-GpYLPQTV-NH2 2 nM, 45-minute incubation
T1 construct: STAT3(G127-I722)
How it was run: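 STAT3(G127-I722) at 25 nM and 5-FAM-GpYLPQTV-NH2 probe at 2 nM in HEPES pH 7.4 buffer with NaCl, EDTA, Tween 20, DTT; 1% DMSO. FP read after 45 min at room temperature; IC50 by nonlinear regression of mP vs log concentration, binned A ≤100 nM to D >10 μM.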

[2] = target: T2, Recombinant STAT6 protein (STAT6(W123-T658)) (Homo sapiens, UniProt P42226); assay: STAT6 Fluorescence Polarization (FP) Assay; type: binding; conditions: STAT6(W123-T658) 250 nM, probe 5-FAM-ApYKPFQDLI-NH2 2 nM, 45-minute incubation
T2 construct: STAT6(W123-T658)
T2 sequence (P42226 123-658): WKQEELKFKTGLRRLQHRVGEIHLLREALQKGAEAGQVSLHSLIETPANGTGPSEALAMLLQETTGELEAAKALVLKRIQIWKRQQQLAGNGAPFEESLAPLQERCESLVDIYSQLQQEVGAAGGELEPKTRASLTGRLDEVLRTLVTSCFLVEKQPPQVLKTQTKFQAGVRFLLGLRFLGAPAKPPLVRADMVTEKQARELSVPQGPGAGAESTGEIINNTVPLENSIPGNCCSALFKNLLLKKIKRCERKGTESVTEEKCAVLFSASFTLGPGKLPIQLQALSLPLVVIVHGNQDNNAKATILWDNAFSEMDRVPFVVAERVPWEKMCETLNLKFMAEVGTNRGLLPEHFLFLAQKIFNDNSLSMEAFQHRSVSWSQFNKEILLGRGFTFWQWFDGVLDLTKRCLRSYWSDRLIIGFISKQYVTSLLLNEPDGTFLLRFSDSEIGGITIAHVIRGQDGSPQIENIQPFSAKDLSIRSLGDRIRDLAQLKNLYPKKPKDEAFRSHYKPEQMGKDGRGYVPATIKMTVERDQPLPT
How it was run: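 STAT6 (W123-T658) at 250 nM mixed with 2 nM 5-FAM-ApYKPFQDLI-NH2 probe in HEPES pH 7.4 buffer with DTT and Tween 20, 1% DMSO final. Polarization read after 45 min at room temperature; IC50 by nonlinear regression of mP versus log concentration, reported in bins A–D.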

T1 sequence (P40763 127-722, species assumed): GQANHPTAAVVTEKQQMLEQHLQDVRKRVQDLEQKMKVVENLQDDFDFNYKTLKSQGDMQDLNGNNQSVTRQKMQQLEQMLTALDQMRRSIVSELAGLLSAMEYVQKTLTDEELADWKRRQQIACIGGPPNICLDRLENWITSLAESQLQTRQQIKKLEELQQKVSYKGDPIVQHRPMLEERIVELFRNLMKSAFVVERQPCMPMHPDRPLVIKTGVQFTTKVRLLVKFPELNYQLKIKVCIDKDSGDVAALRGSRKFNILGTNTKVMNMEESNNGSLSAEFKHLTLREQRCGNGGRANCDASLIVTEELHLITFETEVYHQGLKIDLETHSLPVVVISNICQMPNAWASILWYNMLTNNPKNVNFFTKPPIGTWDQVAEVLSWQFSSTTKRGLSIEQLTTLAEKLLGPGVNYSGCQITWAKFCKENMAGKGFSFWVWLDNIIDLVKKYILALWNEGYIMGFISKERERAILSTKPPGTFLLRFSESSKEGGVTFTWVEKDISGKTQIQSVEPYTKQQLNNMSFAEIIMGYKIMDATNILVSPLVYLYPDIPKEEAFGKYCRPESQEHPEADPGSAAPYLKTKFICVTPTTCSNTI

SMILES | IC50 [1] [µM] | IC50 [2] [µM]
CC(=O)N1C[C@H](NC(=O)[C@@H]2CC[C@@H]3C[C@]4(C)C[C@@H]4C[C@H](NC(=O)c4cc5cc(CP(=O)(O)O)ccc5s4)C(=O)N32)[C@@H](F)C1 [Example 273, ((2-(((3S,6S,7aR,8aS,9aR)-3-(((3S,4S)-1-acetyl-4-fluoropyrrolidin-3-yl)carbamoyl)-8a-methyl-5-oxodecahydro-1H-cyclopropa[d]pyrrolo[1,2-a]azocin-6-yl)carbamoyl)benzo[b]thiophen-5-yl)methyl)phosphonic acid] | 1 to 10 | 3 to 30
O=C(N[C@H]1C[C@H]2C[C@H]2C[C@H]2CC[C@@H](C(=O)N3CC(c4[nH]nc5c4CCC5)C3)N2C1=O)c1cc2cc(C(F)(F)P(=O)(O)O)ccc2s1 [Compound 77, (difluoro(2-(((3S,6S,7aR,8aS,9aR)-5-oxo-3-(3-(2,4,5,6-tetrahydrocyclopenta[c]pyrazol-3-yl)azetidine-1-carbonyl)decahydro-1H-cyclopropa[d]pyrrolo[1,2-a]azocin-6-yl)carbamoyl)benzo[b]thiophen-5-yl)methyl)phosphonic acid] | < 0.1 | 3 to 30
CC(=O)N1CCC2C1CN2C(=O)[C@@H]1CC[C@@H]2C[C@H]3C[C@H]3C[C@H](NC(=O)c3cc4cc(C(F)P(=O)(O)O)ccc4s3)C(=O)N21 (stereo in doubt) [Example 289, ((2-(((3S,6S,7aS,8aR,9aR)-3-((1S,5S)-2-acetyl-2,6-diazabicyclo[3.2.0]heptane-6-carbonyl)-5-oxodecahydro-1H-cyclopropa[d]pyrrolo[1,2-a]azocin-6-yl)carbamoyl)benzo[b]thiophen-5-yl)fluoromethyl)phosphonic acid] | 0.1 to 1 | 3 to 30
CN(C)c1ccncc1C1CN(C(=O)[C@@H]2CC[C@@H]3C[C@@H]4C[C@@H]4C[C@H](NC(=O)c4cc5cc([C@@H](F)P(=O)(O)O)ccc5s4)C(=O)N32)C1 (single isomer, unassigned) [Example 394] | < 0.1 | 3 to 30
C[C@@H]1[C@@H](n2ccnc2)CN1C(=O)[C@@H]1CC[C@@H]2C[C@H]3C[C@H]3C[C@H](NC(=O)c3cc4cc(C(F)(F)P(=O)(O)O)ccc4s3)C(=O)N21 [Compound 19, ((2-(((3S,6S,7aS,8aR,9aR)-3-((2R,3S)-3-(1H-imidazol-1-yl)-2-methylazetidine-1-carbonyl)-5-oxodecahydro-1H-cyclopropa[d]pyrrolo[1,2-a]azocin-6-yl)carbamoyl)benzo[b]thiophen-5-yl)difluoromethyl)phosphonic acid] | < 0.1 | 3 to 30
COc1ccncc1C1CN(C(=O)[C@@H]2CC[C@@H]3C[C@@H]4C[C@@H]4C[C@H](NC(=O)c4cc5cc([C@@H](F)P(=O)(O)O)ccc5s4)C(=O)N32)C1 (single isomer, unassigned) [Example 354] | < 0.1 | > 30
O=C(N[C@H]1C[C@H]2C[C@H]2C[C@H]2CC[C@@H](C(=O)N3CCN(C4CCOCC4)CC3)N2C1=O)c1cc2cc(C(F)(F)P(=O)(O)O)ccc2s1 [Compound 125, (difluoro(2-(((3S,6S,7aR,8aS,9aR)-5-ox0-3-(4-(tetrahydro-2H-pyran-4-yl)piperazine-1-carbonyl)decahydro-1H-cyclopropa[d]pyrrolo[1,2-a]azocin-6-yl)carbamoyl)benzo[b]thiophen-5-yl)methyl)phosphonic acid] | 0.1 to 1 | 3 to 30
O=C(N[C@H]1C[C@@H]2C[C@@H]2C[C@H]2CC[C@@H](C(=O)N3CCN(C4COC4)CC3)N2C1=O)c1cc2cc(C(F)(F)P(=O)(O)O)ccc2s1 [Compound 43, (difluoro(2-(((3S,6S,7aS,8aR,9aR)-3-(4-(oxetan-3-yl)piperazine-1-carbonyl)-5-oxodecahydro-1H-cyclopropa[d]pyrrolo[1,2-a]azocin-6-yl)carbamoyl)benzo[b]thiophen-5-yl)methyl)phosphonic acid] | 0.1 to 1 | 3 to 30
O=C(N[C@H]1C[C@H]2C[C@H]2C[C@H]2CC[C@@H](C(=O)N3CC(n4ccnc4)C3)N2C1=O)c1cc2cc(C(F)(F)P(=O)(O)O)ccc2s1 [Compound 107, ((2-(((3S,6S,7aR,8aS,9aR)-3-(3-(1H-imidazol-1-yl)azetidine-1-carbonyl)-5-oxodecahydro-1H-cyclopropa[d]pyrrolo[1,2-a]azocin-6-yl)carbamoyl)benzo[b]thiophen-5-yl)difluoromethyl)phosphonic acid] | < 0.1 | 3 to 30
CC(=O)N1CCC2(C1)CN(C(=O)[C@@H]1CC[C@@H]3C[C@H]4C[C@H]4C[C@H](NC(=O)c4cc5cc(C(F)(F)P(=O)(O)O)ccc5s4)C(=O)N31)C2 [Compound 92, ((2-(((35,6S,7aS,8aR,9aR)-3-(6-acetyl-2,6-diazaspiro[3.4]octane-2-carbonyl)-5-oxodecahydro-1H-cyclopropa[d]pyrrolo[1,2-a]azocin-6-yl)carbamoyl)benzo[b]thiophen-5-yl)difluoromethyl)phosphonic acid] | 0.1 to 1 | 3 to 30
Cc1nc(N2C[C@H](NC(=O)[C@@H]3CC[C@@H]4C[C@H]5C[C@H]5C[C@H](NC(=O)c5cc6cc(C(F)P(=O)(O)O)ccc6s5)C(=O)N43)[C@@H](F)C2)n[nH]1 (stereo partly drawn) [Example 366, (fluoro(2-(((3S,6S,7aS,8aR,9aR)-3-(((3S,4S)-4-fluoro-1-(5-methyl-1H-1,2,4-triazol-3-yl)pyrrolidin-3-yl)carbamoyl)-5-oxodecahydro-1H-cyclopropa[d]pyrrolo[1,2-a]azocin-6-yl)carbamoyl)benzo[b]thiophen-5-yl)methyl)phosphonic acid] | 0.1 to 1 | 3 to 30
O=C(N[C@H]1C[C@@H]2C[C@@H]2C[C@H]2CC[C@@H](C(=O)N3CC(c4ncco4)C3)N2C1=O)c1cc2cc(C(F)P(=O)(O)O)ccc2s1 (stereo partly drawn) [Example 322, (fluoro(2-(((3S,6S,7aS,8aR,9aR)-3-(3-(oxazol-2-yl)azetidine-1-carbonyl)-5-oxodecahydro-1H-cyclopropa[d]pyrrolo[1,2-a]azocin-6-yl)carbamoyl)benzo[b]thiophen-5-yl)methyl)phosphonic acid] | < 0.1 | 3 to 30
O=C(N[C@H]1C[C@@H]2C[C@@H]2C[C@H]2CC[C@@H](C(=O)N3CC(c4cnccc4N4CCC4)C3)N2C1=O)c1cc2cc([C@@H](F)P(=O)(O)O)ccc2s1 [Example 421, ((S)-(2-(((3S,6S,7aS,8aR,9aR)-3-(3-(4-(azetidin-1-yl)pyridin-3-yl)azetidine-1-carbonyl)-5-oxodecahydro-1H-cyclopropa[d]pyrrolo[1,2-a]azocin-6-yl)carbamoyl)benzo[b]thiophen-5-yl)fluoromethyl)phosphonic acid] | < 0.1 | 3 to 30
N#C[C@@H]1CN(C(=O)[C@@H]2CC[C@@H]3C[C@@H]4C[C@@H]4C[C@H](NC(=O)c4cc5cc(C(F)(F)P(=O)(O)O)ccc5s4)C(=O)N32)C[C@H]1c1ccccc1 (relative stereo) [Compound 11, ((2-(((3S,6S,7aR,8aS,9aR)-3-((rel-trans)-3-cyano-4-phenylpyrrolidine-1-carbonyl)-5-oxodecahydro-1H-cyclopropa[d]pyrrolo[1,2-a]azocin-6-yl)carbamoyl)benzo[b]thiophen-5-yl)difluoromethyl)phosphonic acid] | 0.1 to 1 | ≤ 0.3
O=C(N[C@H]1C[C@@H]2C[C@@H]2[C@H]2CC[C@@H](C(=O)N3CC(c4cccnc4)C3)N2C1=O)c1cc2cc(C(F)(F)P(=O)(O)O)ccc2s1 [Compound 67, (difluoro(2-(((3S,6S,7aS,8aS,8bR)-5-oxo-3-(3-(pyridin-3-yl)azetidine-1-carbonyl)decahydrocyclopropa[c]pyrrolo[1,2-a]azepin-6-yl)carbamoyl)benzo[b]thiophen-5-yl)methyl)phosphonic acid] | < 0.1 | 0.3 to 3
CC12CC1C[C@H](NC(=O)c1cc3cc(C(F)(F)P(=O)(O)O)ccc3s1)C(=O)N1[C@H](CC[C@H]1C(=O)N1CC(c3cccnc3)C1)C2 (stereo in doubt) [Example 231, (difluoro(2-(((3S,6S,7aR,8aS,9aR)-8a-methyl-5-oxo-3-(3-(pyridin-3-yl)azetidine-1-carbonyl)decahydro-1H-cyclopropa[d]pyrrolo[1,2-a]azocin-6-yl)carbamoyl)benzo[b]thiophen-5-yl)methyl)phosphonic acid] | < 0.1 | 3 to 30
N#CC1(c2ccccn2)CN(C(=O)[C@@H]2CC[C@@H]3C[C@@H]4C[C@@H]4C[C@H](NC(=O)c4cc5cc([C@H](F)P(=O)(O)O)ccc5s4)C(=O)N32)C1 (single isomer, unassigned) [Example 355] | < 0.1 | 0.3 to 3
